Laboratory results reported in PMC13267291, “In vivo functional profiling and structural characterization of the human GLP1R A316T variant” (Science Advances, 2026).

Key:
[1] = tested on: SNAP/FLAG-hGLP1R^A316T versus ^WT; assay: Nb37 bystander NanoBiT assay (plasma membrane and endosomal GLP-1R activity); format: cell-based, human; details: log(Emax/EC50), Fig. 8B,C; for Agonist-induced endosomal A316T activity versus WT: n = 4 (GLP-1), n = 3 (Ex-4)
Description: Nb37 bystander NanoBiT assays
INS-1 832/3 Glp1r-/- cells were seeded in 6-well plates and co-transfected with the following plasmids:
200 ng pSNAP/FLAG-hGLP1RWT or A316T, 500 ng Gαs (human, short isoform), 500 ng Gβ1 (human), 500 ng Gγ2 (human), 100 ng RIC8B (human, isoform 2), and either 100 ng LgBiT-CAAX (KRAS CAAX motif N-terminally fused with LgBiT) or 500 ng Endofin-LgBiT (Endofin FYVE domain C-terminally fused with LgBiT), plus 100 ng (plasma membrane assay) or 500 ng (endosomal assay) SmBiT-Nb37 [Nb37 cDNA synthesised by GenScript C- terminally fused to SmBiT with a 15 amino acid flexible linker (123) ] and adjusted for total DNA with pcDNA3.1 for the LgBiT-CAAX transfection. 24 hours after transfection, cells were exposed to NanoGlo Live Cell Reagent (Promega) with furimazine (1:20 dilution) and bioluminescence read in a Flexstation 3 plate reader for 8 min before and 30 min after stimulation by […]
AUCs were calculated for each agonist concentration and fitted to log(agonist) versus response four-parameter curves using GraphPad Prism 10.1.2, with logEC50 (potency) and Emax (efficacy) calculated for each replicate dose response curve. Baseline endosomal over plasma membrane bioluminescence ratios were also calculated.
GLP- 1R conformational ECD opening time resolved-fluorescence resonance energy transfer (TR- […]
INS-1 832/3 Glp1r-/- SNAP/FLAG-hGLP1RWT or A316T cells were labelled with SNAP-Lumi4- Tb (Revvity; 40 nM, 60 min at 37°C in complete medium). After washing to remove unbound probe, cells were resuspended in HBSS ± 100 nM plasma membrane dye NR12A (a gift from Prof Andrey Klymchenko, University of Strasbourg, France) for 5 min before washing again. Labelled cells were transferred to 96-well half-area white plates and baseline TR-FRET signal from Lumi-4Tb (donor) and NR12A (acceptor) recorded for 5 min at 37°C using a Flexstation 3 plate reader with the following settings: λex = 335 nm, λem = 490 and 590 n m, delay 50 µs , integration time 300 µs. GLP-1 was then added at serial doses, and […]

[2] = tested on: SNAP/FLAG-hGLP1R^A316T versus ^WT; assay: GLP-1R recruitment to detergent-resistant membrane fractions (lipid rafts); format: cell-based, human; details: 100 nM, 2 min; fold to vehicle; n = 5; Fig. 8G
Description: signal serially monitored for 30 min. The TR-FRET ratio, i.e. the ratio of fluorescence intensities at 590 and 490 nm, was considered indicative of the proximity of the GLP-1R ECD to the plasma membrane.
Baseline-normalised AUCs were used to generate concentration– response curves fitted using GraphPad Prism 10.1.2, with logEC50 and Emax calculated for each replicate dose response curve.
Real- time c ytosolic c alcium a ssay hGLP1R-/- mouse islets were transduced with pAV- SNAP/FLAG-hGLP1RWT or A316T adenoviruses for 24 hours, labelled with the Ca2+ dye Cal-520, AM (4.5 μM; Stratech) diluted in KBRH buffer containing 6 mM glucose for 1 hour and encased in Matrigel onto […] glass bottom MatTek dishes. […] Raw fluorescence intensity traces from islet ROIs were extracted using Fiji. Responses were plotted relative to the average fluorescence intensity during the 6 mM glucose baseline period, before agonist addition, and AUCs separately calculated for the GLP- 1RA + 6 mM and 11 mM glucose […]
were resuspended in 200 μL ice-cold PBS supplemented with cOmplete EDTA-free protease inhibitor cocktail (Roche) and phosphatase inhibitor cocktail 2 and 1% Triton X-100, followed by rotating incubation for 30 min at 4°C. […] GLP-1R enrichment into DRMs was calculated from SNAP over flotillin band intensity levels under the different conditions […]

Substance | Plasma membrane activity, A316T versus WT [1] | Agonist-induced endosomal A316T activity versus WT [1] | Lipid raft segregation/localization in response to agonist, A316T versus WT [2]
GLP-1(7-36)NH2 | without changes | tendency to be increased | no changes
exendin-4 | without changes | significantly reduced | significantly reduced
